Data taken from patent publication US20260041725A1, “MYCONOSIDE-RICH EXTRACT FROM IN VITRO SYSTEMS OF PLANTS BELONGING TO GENERA HABERLEA AND RAMONDA, METHOD OF PREPARATION, AND USE AS CHEMO-, RADIO- AND UV PROTECTOR” (INNOVA BM Ltd., priority 2022, published 2026).

Columns and labels:
[1] = DPPH radical scavenging activity by direct EPR spectroscopy, with UV protector Oxybenzone (Example 5); details: for percentage of trapped DPPH radicals: 0.5% aqueous solution, FIG. 4
Experimental: The radical scavenging activities (% inhibition) of aqueous solutions (0.5%) of Extract 1, Extract 2 (obtained according to Example 1), Oxybenzone, and 1:1 extract: Oxybenzon combinations (w/w) was evaluated by a DPPH test. A comparative DPPH analysis was carried out and the antioxidant potential of Extract 1, Extract 2, a commercial UV protector (Oxybenzone), as well as combinations of Extract 1 with Oxybenzone and of Extract 2 with Oxybenzone was compared. […] The method of direct EPR spectroscopy was used (Yordanov and Christova, 1997; Karamalakova, 2014). To measure DPPH radical scavenging capacity, 98% ethanolic solution of DPPH (80 mM, stock) was used, room temperature (22° C.), and Extract 1, Extract 2, Oxybenzone and the relevant combinations (at a concentration of 0.5%) were mixed and homogenized. The mixture was incubated in the dark, and examined for DPPH-H/R radicals generated in the system at the 1st, 5th and 10th minute. DPPH solution was used as an internal standard for the EPR signal (FIG. 4).

[2] = UVA and UVB light transmission (T %) of dilutions of Extract 2 (Example 4); format: physicochemical; details: FIG. 3
Experimental: UVA and UVB light transmission (T %) was studied for different dilutions of Extract 2 (obtained according to Example 1 herein) with myconoside concentrations of 0.11 mg/ml, 0.055 mg/ml, 0.011 mg/ml, 0 0.0055 mg/ml, and 0.00275 mg/ml, as presented in FIG. 3.

[3] = DPPH radical scavenging activity before and after 2.0 Gy gamma irradiation (Example 6); details: 0.25% aqueous solution, FIG. 6
Experimental: The effect of combinations of the investigated extracts with the commercial radioprotector amifostine was also studied before and after gamma irradiation (FIG. 6). 2.0 Gy 60Co gamma radiation (y-rays) was performed in a water bath (37° C.) with a Rokus-M irradiator at 24 Gy/min.

[4] = tested on: human lymphocyte cultures; assay: Induced chromosomal aberrations test, before and after gamma irradiation (Example 8); format: cell-based; details: non-irradiated blood cells; FIG. 8A
Description: The clastogenic activity and anticlastogenic potential of Extract 1 and Extract 2 (obtained according to Example 1), as well as of the clinically proven cytoprotective agent amifostine, were investigated alone and in combination on human lymphocyte cultures in vitro before and after exposure to ionizing radiation (y-rays) through tests for detection of induced chromosomal aberrations.
The study design included a total of 6 groups, including the untreated control. In each group, 5 blood donors were examined, and in each donor 100 metaphase plates obtained from lymphocyte cells from peripheral venous blood were analyzed for chromosomal aberrations, or a total of 500 metaphase plates for each group.
Cell cultures were prepared using the method of Evans H. J. for short-term culturing of peripheral blood lymphocytes and obtaining metaphase plates for chromosome aberration reading. Chromosome microscope slides were observed on an Olympus BX41 microscope at the most convenient magnifications—screening preparations at magnification 63 and detailed analysis of chromosomes for aberrations at magnification 1000. A minimum of 100 metaphases from each sample were analyzed. […] Exposure was calculated depending on the geometrical parameters of the irradiator, the distance and power of the source.

[5] = DPPH radical scavenging activity by direct EPR spectroscopy, with radioprotector amifostine (Example 6); details: 0.5% aqueous solution, FIG. 5
Description: It has been proven that free radicals generated after exposure to gamma radiation are highly reactive and can trigger chain reactions leading to significant biological damage and increased oxidative stress. […] They are substances and compounds of synthetic or natural origin that allow the body's cells to withstand higher levels of radiation or can quickly eliminate the harmful genotoxic effects of such radiation and maintain human genome stability. […] (FIG. 5).

[6] = tested on: human lymphocyte cultures; assay: Cytokinesis-block micronucleus test, irradiated and non-irradiated blood (Example 7); format: cell-based; details: non-irradiated blood cells; FIG. 7A
Description: The anticlastogenic potential of Extract 1 and Extract 2 (obtained according to Example 1), as well as of the clinically proven cytoprotective agent amifostine, was investigated individually and in combinations on human lymphocyte cultures in vitro before and after exposure to ionizing radiation (gamma rays) by micronucleus scoring tests. […] A compound is considered mutagenic when it increases the spontaneous frequency of the micronuclei (MN) in polychromatic erythrocytes or in lymphocytes. […] The cytokinesis-block micronucleus assay of Fenech, M. and A. Morley (1985) was used to analyze MN in binuclear lymphocytes from peripheral blood. The number of MN found in the examined 500 binuclear cells from cell cultures prepared with irradiated and non-irradiated peripheral venous blood taken from 5 healthy volunteers was investigated. The blood of the donors was exposed to 2.0 Gy 60Co gamma radiation (y-rays) in a water bath (37° C.) with a Rokus-M irradiator at 24 Gy/min. Exposure was calculated depending on the geometrical parameters of the irradiator, the distance and power of the source.

COc1ccc(C(=O)c2ccccc2)c(O)c1 [Oxybenzone]
percentage of trapped DPPH radicals ([1]; 1st minute): 4.7% | percentage of trapped DPPH radicals ([1]; 5th minute): 3.2% | percentage of trapped DPPH radicals ([1]; 10th minute): 2.2% | antioxidant activity (in words) ([1]; 0.5%, Oxybenzone alone vs 1:1 combinations with extracts, p<0.001): very low antioxidant activity

O=C(CCc1ccc(O)c(O)c1)O[C@H]1[C@H](O[C@H]2OC[C@](O)(CO)[C@H]2O)[C@@H](O)[C@H](OCCc2ccc(O)c(O)c2)O[C@@H]1CO[C@@H]1OC[C@](O)(CO)[C@H]1O [myconoside, [(2R,3R,4R,5R,6R)-4-[(2R,3R,4R)-3,4-dihydroxy-4-(hydroxymethyl)oxolan-2-yl]oxy-2-[[(2R,3R,4R)-3,4-dihydroxy-4-(hydroxymethyl)oxolan-2-yl]oxymethyl]-6-[2-(3,4-dihydroxyphenyl)ethoxy]-5-hydroxyoxan-3-yl]3-(3,4-dihydroxyphenyl)propanoate]
protection (UV radiation transmission) ([2]; maximum concentration of 0.11 mg/ml of myconoside (dilutions of Extract 2 of Example 1)): 100% | inhibition of UV radiation transmission ([2]; minimum concentration of 0.011 mg/ml of myconoside (dilutions of Extract 2 of Example 1)): 50%

NCCCNCCSP(=O)(O)O [amifostine]
percentage of trapped DPPH radicals ([3]; after 2.0 Gy gamma irradiation): 5.9% | percentage of trapped DPPH radicals ([3]; before gamma irradiation): 2.5% | clastogenic activity (frequency of aberrant cells) [4]: no clastogenic activity | percentage of trapped DPPH radicals ([5]; 1st minute): 5.1% | percentage of trapped DPPH radicals ([5]; 5th minute): 4.5% | percentage of trapped DPPH radicals ([5]; 10th minute): 3.9% | clastogenic activity (number of MN in 500 binuclear cells) [6]: lack of clastogenic activity
